How the values were obtained:
Format in all cases: cell-based, mouse
[1] = system: cut neurites of SCG neurons; assay: Cut neurites of SCG explant cultures (Wallerian degeneration)
Protocol: Explants were placed into L15 (Leibovitz) medium (Invitrogen), cleaned from other tissues, cut in half and six half explants were placed in the centre of 3.5 cm tissue culture dishes pre-coated with poly-L-lysine (20 μg/ml for 2 h; Sigma) and laminin (20 μg/ml for 2 h; Sigma). Explants were cultured in DMEM containing 4500 mg/L glucose and 110 mg/L sodium pyruvate (Sigma), 2 mM glutamine, 1% penicillin/streptomycin, 1/50 B27 serum supplement and 100 ng/ml 7S NGF (all from Invitrogen) and 4 μM aphidicolin (Sigma) to block proliferation of non-neuronal cells. Neurites were allowed to extend for 7 days in all cultures before any treatment. After this time, neurites were separated from their cell bodies using a scalpel. […] Bright-field images were captured on an Olympus IX81 inverted microscope using a Soft Imaging Systems F-View camera linked to a PC running the Analysis software. Images of the same field of neurites were captured just after or at regular intervals up to 48-72 hours after cut injuries. […] In this experiment, SCG neurons were cultured for 7 days as described in the methodology, then the neurites were separated from the cell bodies by a scalpel, and the distal part of the neurites with respect to the cut was imaged immediately after the cut or 24 hours after the cut.

neurites of SCG neurons = assay: Vincristine-treated neurites of SCG explant cultures
Protocol: (§1) Explants were placed into L15 (Leibovitz) medium (Invitrogen), cleaned from other tissues, cut in half and six half explants were placed in the centre of 3.5 cm tissue culture dishes pre-coated with poly-L-lysine (20 μg/ml for 2 h; Sigma) and laminin (20 μg/ml for 2 h; Sigma). Explants were cultured in DMEM containing 4500 mg/L glucose and 110 mg/L sodium pyruvate (Sigma), 2 mM glutamine, 1% penicillin/streptomycin, 1/50 B27 serum supplement and 100 ng/ml 7S NGF (all from Invitrogen) and 4 μM aphidicolin (Sigma) to block proliferation of non-neuronal cells. Neurites were allowed to extend for 7 days in all cultures before any treatment. After this time, neurites were separated from their cell bodies using a scalpel. […] Bright-field images were captured on an Olympus IX81 inverted microscope using a Soft Imaging Systems F-View camera linked to a PC running the Analysis software. Images of the same field of neurites were captured just after or at regular intervals up to 48-72 hours after cut injuries.
This experiment was performed in an analogous manner to that described in Examples 2 and 3, however the neurites, instead of being separated by the cell body with a cut, were treated with the neurotoxic chemotherapy drug vincristine. […] The distal part of the neurites was imaged immediately and at 24, 48 and 72 hours after adding the drugs.

[2] = system: intracellular NAD(P)^+ levels in SCG cultures; assay: NAD(P)+ levels in SCG explant cultures; settings: 100 nM FK866 for 8 h or 24 h; FIG. 2
Protocol: as §1
At this time, the explants were collected in 100 μl H2O for NAD(P)^+ determination as described in Billington et al. (2008) J Biol Chem 283(10), 6367-6374.
The results of this analysis can be seen in FIG. 2. […] Therefore, the reduced intracellular levels of NMN^+ result in a reduction in the turnover of NMN^+ to NAD^+ by isoforms of Nmnat.

## NC(=O)c1ccc[n+]([C@@H]2O[C@H](COP(=O)([O-])O)[C@@H](O)[C@H]2O)c1 [NMN, nicotinamide mononucleotide]
[1]; NMN^+ in combination with FK866, FIG. 4
  effect of adding NMN^+ with FK866 on cut neurites: reverts the protective effect of FK866
Neurites of SCG neurons; 0.02 μM vincristine plus 100 nM FK866 and 1 mM NMN, FIG. 5
  effect of adding NMN with FK866 on vincristine-treated neurites: protective effect is reverted

## CC[C@]1(O)C[C@H]2CN(CCc3c([nH]c4ccccc34)[C@@](C(=O)OC)(c3cc4c(cc3OC)N(C=O)[C@H]3[C@@](O)(C(=O)OC)[C@H](OC(C)=O)[C@]5(CC)C=CCN6CC[C@]43[C@@H]65)C2)C1 [Vincristine, vincristine]
Neurites of SCG neurons; 0.02 μM vincristine alone
  toxic effect on neurites: progressive distal-to-proximal degeneration of neurites

## O=C(/C=C/c1cccnc1)NCCCCC1CCN(C(=O)c2ccccc2)CC1 [FK866, N-[4-(1-benzoyl-4-piperidinyl)butyl]-3-(3-pyridinyl)-2E-propenamide]
[2]
  effect on NAD^+ levels: depletion of NAD^+
[1]; FK866 100 nM, cut neurites, estimated
  neurite survival increase: increased by four fold
[1]; FK866 100 nM, imaged 24 hours after cut, FIG. 3
  effect on injured (cut) neurites: preserving injured neurites in primary culture even if added shortly after cutting
[1]; data not shown
  neuroprotective effect on cell bodies: does not extend to cell bodies
Neurites of SCG neurons; 0.02 μM vincristine plus 100 nM FK866, up to 72 hours, FIG. 5
  effect on vincristine-induced neurite degeneration: protection
